Laboratory results taken from patent US20220105058A1, “USE OF 3-O-SULFAMATE-16,16-DIMETHYL-D-HOMOEQUILENIN TO TREAT ONCOLOGICAL DISEASES” (priority 2018, published 2022).
Where “and” joins values, the source holds several entries; their conditions need not be identical. Equal values may be shown once. Entries after “also recorded” stand apart in the source; their conditions may differ. Read-outs that look alike come from different tables or passages of the source.

Tests used:
[1] = system: subcutaneous xenografts of human TNBC-Kad breast cancer
Procedure: (§1) A comparative study of the medicaments in vivo was performed in female Balb/c nude mice with subcutaneously (s.c.) transplanted tumor cells. The experiment lasted for 29 days after the medicament administration for the first time (the administration of the medicaments was started on Day 5 after the tumor strain transplantation).
(§2) The medicament and the reference drug were administered intragastrically multiple times at doses of 30 mg/kg and 10 mg/kg daily for 21 days.
(§3) The placebo group was given 1% starch solution intragastrically in equivalent volumes and in the same regime. Tumor nodes were measured 2 times per week. […] Once the treatment was completed, the last tumor measurement was carried out, and animals were weighed and euthanized.
(§4) The animals were weighed on the first day of the experiment, and then 2 times per week throughout the experiment according to the research protocol.
(§5) A tumor node was measured after tumor transplantation 2 times per week throughout the experiment. The tumor node volume was determined by the formula:
(§6) V=π/6*L*W*H, where L, W, H are the linear size dimensions of the tumor.
(§7) Determination of Antitumor Activity
(§8) Tumor growth inhibition index (TGI) was used as a criterion for the study of the medicament efficacy and calculated by the formula as follows:
(§9) TGI (%)=|Vctrl−Vexp|/Vctrl*100
(§10) where Vctrl and Vexp are the average tumor volume (mm^3) in the control and in the experimental groups, respectively.
(§11) After the course of the treatment, the animals were euthanized by the cervical dislocation of cervical vertebrae.
(§12) The statistical data processing was conducted using SPSS 21 package (license No. 20130626-3). Descriptive statistics in the study includes the following: arithmetic average, standard deviation (SD), standard mean error (SE), median, quartiles, interquartile range. To compare quantitative characteristics in the groups, the Mann-Whitney-Wilcoxon test was used without corrections for multiple comparisons. The results were considered statistically significant at p<0.05.

[2] = system: subcutaneous xenografts of human SKBR-3 breast cancer
Procedure: as §1, §2, §3, §4, §5, §6, §7, §8, §9, §10, §11, §12

CC/C(=C(\c1ccccc1)c1ccc(OCCN(C)C)cc1)c1ccccc1 [Tamoxifen]
tumor growth inhibition over the entire observation period ([1]; Tamoxifen 10 mg/kg): no tumor growth inhibition was detected; also recorded: is not effective
average tumor volume (M ± m) ([1]; Tamoxifen 10 mg/kg, Day 0): 2.3±0.8 mm^3 and 2.33 ± 0.76 mm^3
average tumor volume (M ± m) ([1]; Tamoxifen 10 mg/kg, Day 3): 25.61 ± 5.56 mm^3
TNBC_Kad growth inhibition, TGI ([1]; Tamoxifen 10 mg/kg, Day 7): 0.5%
average tumor volume (M ± m) ([1]; Tamoxifen 10 mg/kg, Day 7): 79.17 ± 18.80 mm^3
TNBC_Kad growth inhibition, TGI ([1]; Tamoxifen 10 mg/kg, Day 10): −20.7%
average tumor volume (M ± m) ([1]; Tamoxifen 10 mg/kg, Day 10): 122.09 ± 27.84 mm^3
TNBC_Kad growth inhibition, TGI ([1]; Tamoxifen 10 mg/kg, Day 14): −18.4%
average tumor volume (M ± m) ([1]; Tamoxifen 10 mg/kg, Day 14): 193.24 ± 54.10 mm^3
TNBC_Kad growth inhibition, TGI ([1]; Tamoxifen 10 mg/kg, Day 17): −22.6%
average tumor volume (M ± m) ([1]; Tamoxifen 10 mg/kg, Day 17): 237.32 ± 77.07 mm^3
TNBC_Kad growth inhibition, TGI ([1]; Tamoxifen 10 mg/kg, Day 21): −7.9%
average tumor volume (M ± m) ([1]; Tamoxifen 10 mg/kg, Day 21): 322.76 ± 88.25 mm^3
average tumor volume (M ± m) ([1]; Tamoxifen 30 mg/kg, Day 0): 4.1±1.2 mm^3 and 4.14 ± 1.22 mm^3
average tumor volume (M ± m) ([1]; Tamoxifen 30 mg/kg, Day 3): 17.12 ± 4.12 mm^3
average tumor volume (M ± m) ([1]; Tamoxifen 30 mg/kg, Day 7): 44.1±8.8 mm^3 and 44.13 ± 8.81 mm^3
TNBC_Kad growth inhibition, TGI ([1]; Tamoxifen 30 mg/kg, Day 10): 39.4%
average tumor volume (M ± m) ([1]; Tamoxifen 30 mg/kg, Day 10): 61.37 ± 12.03 mm^3
TNBC_Kad growth inhibition, TGI ([1]; Tamoxifen 30 mg/kg, Day 14): 26.8%
average tumor volume (M ± m) ([1]; Tamoxifen 30 mg/kg, Day 14): 119.53 ± 18.54 mm^3
TNBC_Kad growth inhibition, TGI ([1]; Tamoxifen 30 mg/kg, Day 17): 26.7%
average tumor volume (M ± m) ([1]; Tamoxifen 30 mg/kg, Day 17): 141.85 ± 35.07 mm^3
TNBC_Kad growth inhibition, TGI ([1]; Tamoxifen 30 mg/kg, Day 21): 33.3%
average tumor volume (M ± m) ([1]; Tamoxifen 30 mg/kg, Day 21): 199.54 ± 43.55 mm^3
average tumor volume (M ± m) ([2]; Tamoxifen 10 mg/kg, Day 0): 0.7±0.1 mm^3
average tumor volume (M ± m) ([2]; Tamoxifen 10 mg/kg, Day 3): 1.0 ± 0.3 mm^3
SKBR-3 growth inhibition, TGI ([2]; Tamoxifen 10 mg/kg, Day 7): 63.9%
average tumor volume (M ± m) ([2]; Tamoxifen 10 mg/kg, Day 7): 7.2±3.9 mm^3
SKBR-3 growth inhibition, TGI ([2]; Tamoxifen 10 mg/kg, Day 10): 56.9%
average tumor volume (M ± m) ([2]; Tamoxifen 10 mg/kg, Day 10): 33.4±16.1 mm^3
SKBR-3 growth inhibition, TGI ([2]; Tamoxifen 10 mg/kg, Day 14): 60.6%
average tumor volume (M ± m) ([2]; Tamoxifen 10 mg/kg, Day 14): 47.5±16.8 mm^3
SKBR-3 growth inhibition, TGI ([2]; Tamoxifen 10 mg/kg, Day 17): 68.9%
average tumor volume (M ± m) ([2]; Tamoxifen 10 mg/kg, Day 17): 58.0±18.2 mm^3
SKBR-3 growth inhibition, TGI ([2]; Tamoxifen 10 mg/kg, Day 21): 45.4%
average tumor volume (M ± m) ([2]; Tamoxifen 10 mg/kg, Day 21): 145.5 ± 70.9 mm^3
SKBR-3 growth inhibition, TGI ([2]; Tamoxifen 10 mg/kg, Day 24): 9.5%
average tumor volume (M ± m) ([2]; Tamoxifen 10 mg/kg, Day 24): 211.1 ± 94.0 mm^3
average tumor volume (M ± m) ([2]; Tamoxifen 30 mg/kg, Day 0): 0.9±0.2 mm^3
average tumor volume (M ± m) ([2]; Tamoxifen 30 mg/kg, Day 3): 2.0 ± 0.4 mm^3
SKBR-3 growth inhibition, TGI ([2]; Tamoxifen 30 mg/kg, Day 7): 6.2%
average tumor volume (M ± m) ([2]; Tamoxifen 30 mg/kg, Day 7): 18.8±7.4 mm^3
SKBR-3 growth inhibition, TGI ([2]; Tamoxifen 30 mg/kg, Day 10): 12.6%
average tumor volume (M ± m) ([2]; Tamoxifen 30 mg/kg, Day 10): 67.6 ± 21.1 mm^3
SKBR-3 growth inhibition, TGI ([2]; Tamoxifen 30 mg/kg, Day 14): 2.9%
average tumor volume (M ± m) ([2]; Tamoxifen 30 mg/kg, Day 14): 117.1 ± 41.7 mm^3
SKBR-3 growth inhibition, TGI ([2]; Tamoxifen 30 mg/kg, Day 17): −17.1%
average tumor volume (M ± m) ([2]; Tamoxifen 30 mg/kg, Day 17): 218.3 ± 63.6 mm^3
SKBR-3 growth inhibition, TGI ([2]; Tamoxifen 30 mg/kg, Day 21): −44.2% and −44.4%
average tumor volume (M ± m) ([2]; Tamoxifen 30 mg/kg, Day 21): 384.8±103.2 mm^3
SKBR-3 growth inhibition, TGI ([2]; Tamoxifen 30 mg/kg, Day 24): −68.1%
average tumor volume (M ± m) ([2]; Tamoxifen 30 mg/kg, Day 24): 392.1 mm^3
antitumor efficacy ([2]; pilot experiment, Tamoxifen 10 mg/kg): not effective
effect on tumor growth ([2]; pilot experiment, Tamoxifen 10 mg/kg, Days 10 to 17): tumor growth stimulation was recorded
